Converted amounts (≈) assume the structure as drawn.
Legend:
Assay in all cases: Agar dilution MIC in DST agar (Ericsson and Sherris)
Type in all cases: cell-based
[1] = tested on: Staphylococcus aureus 10B; details: Staphylococcus aureus, 10B, in vitro, read-out: MIC Staph. 10B
Excerpt: (§1) Die antibiotische Aktivität der Testverbindungen in vitro wurde durch die Agarverdünnungsmethode nach Ericsson, H.M., und Sherris, S.C., 1971, Acta Path. Microb. Scand. Section B, Suppl. No. 217, Bd. 1-90, in DST Agara ermittelt. Die gefundenen, das Wachstum der Testorganismen noch hemmenden Minimalkonzentrationen (MIC = minimum inhibiting concentrations) werden in Mikrogramm pro Milliliter (µg/ml) für die geprüften Verbindungen in der Tabelle 1 angegeben.

Escherichia coli 205 = details: Escherichia coli, 205, in vitro, read-out: MIC Esch. 205
Excerpt: as §1

[2] = tested on: Salmonella Typhimurium 277; details: Salmonella enterica, TYPHIMURIUM, in vitro, read-out: MIC Salm. 277
Excerpt: as §1

Proteus morganii 2359 = details: Morganella morganii, 2359, in vitro, read-out: MIC Prot. 2359
Excerpt: as §1

Escherichia coli 2018 = details: Escherichia coli, 2018, in vitro, read-out: MIC Esch. 2018
Excerpt: as §1

[3] = tested on: Pseudomonas aeruginosa K 799/61; details: Pseudomonas aeruginosa, K799/61, read-out: MIC Pseu. 799
Excerpt: as §1

Proteus morganii 1518 = details: Morganella morganii, 1518, in vitro, read-out: MIC Prot. 1518
Excerpt: as §1

[4] = tested on: Staphylococcus aureus 2999; details: Staphylococcus aureus, 2999, in vitro, read-out: MIC Staph. 2999
Excerpt: as §1

Row | Compound | MIC [1] [µg/mL] | MIC (Escherichia coli 205) [µg/mL] | MIC [2] [µg/mL] | MIC (Proteus morganii 2359) [µg/mL] | MIC (Escherichia coli 2018) [µg/mL] | MIC [3] [µg/mL] | MIC (Proteus morganii 1518) [µg/mL] | MIC [4] [µg/mL]
1 | CO[C@H]1/C=C/O[C@@]2(C)Oc3c(C)c(O)c4c(O)c(c5[nH]c(N(C)C6CCN(C)CC6)nc5c4c3C2=O)NC(=O)/C(C)=C\C=C\[C@H](C)[C@H](O)[C@@H](C)[C@@H](O)[C@@H](C)[C@H](OC(C)=O)[C@@H]1C [Verbindung 13] | 0.05 (≈ 0.059 µM) | 8 (≈ 9.43 µM) | 32 (≈ 37.7 µM) | 16 (≈ 18.9 µM) | 8 (≈ 9.43 µM) | 8 (≈ 9.43 µM) | 16 (≈ 18.9 µM) | 0.05 (≈ 0.059 µM)
2 | CCN(CCO)c1nc2c([nH]1)c1c(O)c3c(O)c(C)c4c(c32)C(=O)[C@@](C)(O/C=C/[C@H](OC)[C@@H](C)[C@@H](OC(C)=O)[C@H](C)[C@H](O)[C@H](C)[C@@H](O)[C@@H](C)/C=C/C=C(/C)C(=O)N1)O4 [Verbindung 14, 4-[N-Ethyl-N-(2-hydroxyethyl)-amino]-imidazolo[4,5-c]rifamycin SV] | 0.05 (≈ 0.0618 µM) | 8 (≈ 9.89 µM) | 32 (≈ 39.6 µM) | 16 (≈ 19.8 µM) | 16 (≈ 19.8 µM) | 16 (≈ 19.8 µM) | 16 (≈ 19.8 µM) | 0.01 (≈ 0.0124 µM)
3 | COC(CN(C)c1nc2c([nH]1)c1c(O)c3c(O)c(C)c4c(c32)C(=O)[C@@](C)(O/C=C/[C@H](OC)[C@@H](C)[C@@H](OC(C)=O)[C@H](C)[C@H](O)[C@H](C)[C@@H](O)[C@@H](C)/C=C/C=C(/C)C(=O)N1)O4)OC [Verbindung 15, 4-[N-(2,2-Dimethoxyethyl)-N-methylamino]-imidazolo[4,5-c]-rifamycin SV] | 0.005 (≈ 0.00596 µM) | 8 (≈ 9.54 µM) | 32 (≈ 38.1 µM) | 4 (≈ 4.77 µM) | 8 (≈ 9.54 µM) | 16 (≈ 19.1 µM) | 8 (≈ 9.54 µM) | 0.005 (≈ 0.00596 µM)
4 | COCCN(CCOC)c1nc2c([nH]1)c1c(O)c3c(O)c(C)c4c(c32)C(=O)[C@@](C)(O/C=C/[C@H](OC)[C@@H](C)[C@@H](OC(C)=O)[C@H](C)[C@H](O)[C@H](C)[C@@H](O)[C@@H](C)/C=C/C=C(/C)C(=O)N1)O4 [Verbindung 16, 4-[N-Di-(2-methoxyethyl)-amino]-imidazolo[4,5-c]rifamycin SV] | 0.01 (≈ 0.0117 µM) | 8 (≈ 9.38 µM) | 32 (≈ 37.5 µM) | 4 (≈ 4.69 µM) | 8 (≈ 9.38 µM) | 8 (≈ 9.38 µM) | 2 (≈ 2.34 µM) | 0.01 (≈ 0.0117 µM)
5 | CO[C@H]1/C=C/O[C@@]2(C)Oc3c(C)c(O)c4c(O)c(c5[nH]c(N(C)CCN(C)C)nc5c4c3C2=O)NC(=O)/C(C)=C\C=C\[C@H](C)[C@H](O)[C@@H](C)[C@@H](O)[C@@H](C)[C@H](OC(C)=O)[C@@H]1C [Verbindung 17, 4-[N-Methyl-N-(2-dimethylaminoethyl)-amino]-imidazolo-[4,5-c]rifamycin SV] | 0.005 (≈ 0.00608 µM) | 32 (≈ 38.9 µM) | 64 (≈ 77.9 µM) | 32 (≈ 38.9 µM) | 64 (≈ 77.9 µM) | 64 (≈ 77.9 µM) | 64 (≈ 77.9 µM) | 0.005 (≈ 0.00608 µM)
6 | CO[C@H]1/C=C/O[C@@]2(C)Oc3c(C)c(O)c4c(O)c(c5[nH]c(N6CCCCC6)nc5c4c3C2=O)NC(=O)/C(C)=C\C=C\[C@H](C)[C@H](O)[C@@H](C)[C@@H](O)[C@@H](C)[C@H](OC(C)=O)[C@@H]1C [Verbindung 21, 4-Piperidino-imidazolo[4,5-c]rifamycin SV] | 0.005 (≈ 0.00621 µM) | 4 (≈ 4.97 µM) | 16 (≈ 19.9 µM) | 4 (≈ 4.97 µM) | 4 (≈ 4.97 µM) | 16 (≈ 19.9 µM) | 4 (≈ 4.97 µM) | 0.005 (≈ 0.00621 µM)
7 | CCOC(=O)C1CCN(c2nc3c([nH]2)c2c(O)c4c(O)c(C)c5c(c43)C(=O)[C@@](C)(O/C=C/[C@H](OC)[C@@H](C)[C@@H](OC(C)=O)[C@H](C)[C@H](O)[C@H](C)[C@@H](O)[C@@H](C)/C=C/C=C(/C)C(=O)N2)O5)CC1 [Verbindung 22, 4-(4-Ethoxycarbonyl-1-piperidyl)-imidazolo[4,5-c]rifamycin SV] | 0.005 (≈ 0.0057 µM) | 16 (≈ 18.2 µM) | 32 (≈ 36.5 µM) | 4 (≈ 4.56 µM) | 8 (≈ 9.12 µM) | 16 (≈ 18.2 µM) | 4 (≈ 4.56 µM) | 0.005 (≈ 0.0057 µM)
8 | CO[C@H]1/C=C/O[C@@]2(C)Oc3c(C)c(O)c4c(O)c(c5[nH]c(N6CCC(N(C)C)CC6)nc5c4c3C2=O)NC(=O)/C(C)=C\C=C\[C@H](C)[C@H](O)[C@@H](C)[C@@H](O)[C@@H](C)[C@H](OC(C)=O)[C@@H]1C [Verbindung 23, 4-(4-Dimethylamino-l-piperidyl)-imidazolo[4,5-c]rifamycin SV] | 0.1 (≈ 0.118 µM) | 16 (≈ 18.9 µM) | 16 (≈ 18.9 µM) | 16 (≈ 18.9 µM) | 8 (≈ 9.43 µM) | 16 (≈ 18.9 µM) | 16 (≈ 18.9 µM) | 0.1 (≈ 0.118 µM)
